{
  "source": "patent US20230111310A1",
  "about": "“CARBOXYLIC ACID DERIVATIVE-SUBSTITUTED IMINO ARYL COMPOUND, PREPARATION METHOD THEREFOR, HERBICIDAL COMPOSITION AND USE THEREOF” (Qingdao Kingagroot Chemical Compound Co., Ltd., priority 2020, published 2023)",
  "data": [
    {"test_system": "Abutilon theophrasti", "assay": "Weeding effect in post-emergence stage", "type": "in vivo", "conditions": "Dose 15 g/ha; level of fresh weight growth control rate", "procedure,_shortened": "(§1)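 Read-out is growth control rate, counted 3 weeks post-spray and averaged over three repeats. Greenhouse plants at the 2-3 leaf stage received spray-tower application at 500, 250, 125, 60, 30, 15 or 7.5 g/ha, with methyl oleate EC (1.5 liter/ha) and Tween 80 added.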", "values": [
      {"smiles": "C[C@@H](O/N=C/c1cc(-n2c(=O)n(C)c(=S)n(C)c2=O)c(F)cc1Cl)C(=O)OCCCC(F)(F)F", "note": "[12(R)]", "Weeding effect in post-emergence stage, Abutilon theophrasti": "5 (Level 5: growth control rate is above 85%)"},
      {"smiles": "COCCOC(=O)[C@@H](C)O/N=C/c1cc(-n2c(=O)n(C)c(=S)n(C)c2=O)c(F)cc1Cl", "note": "[14(R)]", "Weeding effect in post-emergence stage, Abutilon theophrasti": "5 (Level 5: growth control rate is above 85%)"},
      {"smiles": "CCOC(=O)COC(=O)[C@@H](C)O/N=C/c1cc(-n2c(=O)n(C)c(=S)n(C)c2=O)c(F)cc1Cl", "note": "[17(R)]", "Weeding effect in post-emergence stage, Abutilon theophrasti": "5 (Level 5: growth control rate is above 85%)"},
      {"smiles": "CC(C)=NOC(=O)[C@@H](C)O/N=C/c1cc(-n2c(=O)n(C)c(=S)n(C)c2=O)c(F)cc1Cl", "note": "[20(R)]", "Weeding effect in post-emergence stage, Abutilon theophrasti": "5 (Level 5: growth control rate is above 85%)"},
      {"smiles": "C[C@@H](O/N=C/c1cc(-n2c(=O)n(C)c(=S)n(C)c2=O)c(F)cc1Cl)C(=O)OCC1CCCO1", "note": "(stereo partly drawn) [24(R)]", "Weeding effect in post-emergence stage, Abutilon theophrasti": "5 (Level 5: growth control rate is above 85%)"}
    ]},
    {"test_system": "Alopecurus japonicus", "assay": "Weeding effect in post-emergence stage", "type": "in vivo", "conditions": "Dose 15 g/ha; level of fresh weight growth control rate", "procedure,_shortened": "as §1", "values": [
      {"smiles": "C[C@@H](O/N=C/c1cc(-n2c(=O)n(C)c(=S)n(C)c2=O)c(F)cc1Cl)C(=O)OCCCC(F)(F)F", "note": "[12(R)]", "Weeding effect in post-emergence stage, Alopecurus japonicus": "5 (Level 5: growth control rate is above 85%)"},
      {"smiles": "COCCOC(=O)[C@@H](C)O/N=C/c1cc(-n2c(=O)n(C)c(=S)n(C)c2=O)c(F)cc1Cl", "note": "[14(R)]", "Weeding effect in post-emergence stage, Alopecurus japonicus": "4 (Level 4: growth control rate is greater than or equal to 60% and less than 85%)"},
      {"smiles": "CCOC(=O)COC(=O)[C@@H](C)O/N=C/c1cc(-n2c(=O)n(C)c(=S)n(C)c2=O)c(F)cc1Cl", "note": "[17(R)]", "Weeding effect in post-emergence stage, Alopecurus japonicus": "5 (Level 5: growth control rate is above 85%)"},
      {"smiles": "CC(C)=NOC(=O)[C@@H](C)O/N=C/c1cc(-n2c(=O)n(C)c(=S)n(C)c2=O)c(F)cc1Cl", "note": "[20(R)]", "Weeding effect in post-emergence stage, Alopecurus japonicus": "5 (Level 5: growth control rate is above 85%)"},
      {"smiles": "C[C@@H](O/N=C/c1cc(-n2c(=O)n(C)c(=S)n(C)c2=O)c(F)cc1Cl)C(=O)OCC1CCCO1", "note": "(stereo partly drawn) [24(R)]", "Weeding effect in post-emergence stage, Alopecurus japonicus": "5 (Level 5: growth control rate is above 85%)"}
    ]},
    {"test_system": "Digitaria sanguinalis", "assay": "Weeding effect in post-emergence stage", "type": "in vivo", "conditions": "Dose 15 g/ha; level of fresh weight growth control rate", "procedure,_shortened": "as §1", "values": [
      {"smiles": "C[C@@H](O/N=C/c1cc(-n2c(=O)n(C)c(=S)n(C)c2=O)c(F)cc1Cl)C(=O)OCCCC(F)(F)F", "note": "[12(R)]", "Weeding effect in post-emergence stage, Digitaria sanguinalis": "5 (Level 5: growth control rate is above 85%)"},
      {"smiles": "COCCOC(=O)[C@@H](C)O/N=C/c1cc(-n2c(=O)n(C)c(=S)n(C)c2=O)c(F)cc1Cl", "note": "[14(R)]", "Weeding effect in post-emergence stage, Digitaria sanguinalis": "5 (Level 5: growth control rate is above 85%)"},
      {"smiles": "CCOC(=O)COC(=O)[C@@H](C)O/N=C/c1cc(-n2c(=O)n(C)c(=S)n(C)c2=O)c(F)cc1Cl", "note": "[17(R)]", "Weeding effect in post-emergence stage, Digitaria sanguinalis": "5 (Level 5: growth control rate is above 85%)"},
      {"smiles": "CC(C)=NOC(=O)[C@@H](C)O/N=C/c1cc(-n2c(=O)n(C)c(=S)n(C)c2=O)c(F)cc1Cl", "note": "[20(R)]", "Weeding effect in post-emergence stage, Digitaria sanguinalis": "5 (Level 5: growth control rate is above 85%)"},
      {"smiles": "C[C@@H](O/N=C/c1cc(-n2c(=O)n(C)c(=S)n(C)c2=O)c(F)cc1Cl)C(=O)OCC1CCCO1", "note": "(stereo partly drawn) [24(R)]", "Weeding effect in post-emergence stage, Digitaria sanguinalis": "5 (Level 5: growth control rate is above 85%)"}
    ]},
    {"test_system": "Eleusine indica", "assay": "Weeding effect in post-emergence stage", "type": "in vivo", "conditions": "Dose 15 g/ha; level of fresh weight growth control rate", "procedure,_shortened": "as §1", "values": [
      {"smiles": "C[C@@H](O/N=C/c1cc(-n2c(=O)n(C)c(=S)n(C)c2=O)c(F)cc1Cl)C(=O)OCCCC(F)(F)F", "note": "[12(R)]", "Weeding effect in post-emergence stage, Eleusine indica": "5 (Level 5: growth control rate is above 85%)"},
      {"smiles": "COCCOC(=O)[C@@H](C)O/N=C/c1cc(-n2c(=O)n(C)c(=S)n(C)c2=O)c(F)cc1Cl", "note": "[14(R)]", "Weeding effect in post-emergence stage, Eleusine indica": "5 (Level 5: growth control rate is above 85%)"},
      {"smiles": "CCOC(=O)COC(=O)[C@@H](C)O/N=C/c1cc(-n2c(=O)n(C)c(=S)n(C)c2=O)c(F)cc1Cl", "note": "[17(R)]", "Weeding effect in post-emergence stage, Eleusine indica": "5 (Level 5: growth control rate is above 85%)"},
      {"smiles": "CC(C)=NOC(=O)[C@@H](C)O/N=C/c1cc(-n2c(=O)n(C)c(=S)n(C)c2=O)c(F)cc1Cl", "note": "[20(R)]", "Weeding effect in post-emergence stage, Eleusine indica": "5 (Level 5: growth control rate is above 85%)"},
      {"smiles": "C[C@@H](O/N=C/c1cc(-n2c(=O)n(C)c(=S)n(C)c2=O)c(F)cc1Cl)C(=O)OCC1CCCO1", "note": "(stereo partly drawn) [24(R)]", "Weeding effect in post-emergence stage, Eleusine indica": "5 (Level 5: growth control rate is above 85%)"}
    ]},
    {"test_system": "Setaria viridis", "assay": "Weeding effect in post-emergence stage", "type": "in vivo", "conditions": "Dose 15 g/ha; level of fresh weight growth control rate", "procedure,_shortened": "as §1", "values": [
      {"smiles": "C[C@@H](O/N=C/c1cc(-n2c(=O)n(C)c(=S)n(C)c2=O)c(F)cc1Cl)C(=O)OCCCC(F)(F)F", "note": "[12(R)]", "Weeding effect in post-emergence stage, Setaria viridis": "5 (Level 5: growth control rate is above 85%)"},
      {"smiles": "COCCOC(=O)[C@@H](C)O/N=C/c1cc(-n2c(=O)n(C)c(=S)n(C)c2=O)c(F)cc1Cl", "note": "[14(R)]", "Weeding effect in post-emergence stage, Setaria viridis": "5 (Level 5: growth control rate is above 85%)"},
      {"smiles": "CCOC(=O)COC(=O)[C@@H](C)O/N=C/c1cc(-n2c(=O)n(C)c(=S)n(C)c2=O)c(F)cc1Cl", "note": "[17(R)]", "Weeding effect in post-emergence stage, Setaria viridis": "5 (Level 5: growth control rate is above 85%)"},
      {"smiles": "CC(C)=NOC(=O)[C@@H](C)O/N=C/c1cc(-n2c(=O)n(C)c(=S)n(C)c2=O)c(F)cc1Cl", "note": "[20(R)]", "Weeding effect in post-emergence stage, Setaria viridis": "5 (Level 5: growth control rate is above 85%)"},
      {"smiles": "C[C@@H](O/N=C/c1cc(-n2c(=O)n(C)c(=S)n(C)c2=O)c(F)cc1Cl)C(=O)OCC1CCCO1", "note": "(stereo partly drawn) [24(R)]", "Weeding effect in post-emergence stage, Setaria viridis": "5 (Level 5: growth control rate is above 85%)"}
    ]},
    {"test_system": "Echinochloa crusgalli", "assay": "Weeding effect in post-emergence stage", "type": "in vivo", "conditions": "Dose 15 g/ha; level of fresh weight growth control rate", "procedure,_shortened": "as §1", "values": [
      {"smiles": "C[C@@H](O/N=C/c1cc(-n2c(=O)n(C)c(=S)n(C)c2=O)c(F)cc1Cl)C(=O)OCCCC(F)(F)F", "note": "[12(R)]", "Weeding effect in post-emergence stage, Echinochloa crusgalli": "5 (Level 5: growth control rate is above 85%)"},
      {"smiles": "COCCOC(=O)[C@@H](C)O/N=C/c1cc(-n2c(=O)n(C)c(=S)n(C)c2=O)c(F)cc1Cl", "note": "[14(R)]", "Weeding effect in post-emergence stage, Echinochloa crusgalli": "5 (Level 5: growth control rate is above 85%)"},
      {"smiles": "CCOC(=O)COC(=O)[C@@H](C)O/N=C/c1cc(-n2c(=O)n(C)c(=S)n(C)c2=O)c(F)cc1Cl", "note": "[17(R)]", "Weeding effect in post-emergence stage, Echinochloa crusgalli": "5 (Level 5: growth control rate is above 85%)"},
      {"smiles": "CC(C)=NOC(=O)[C@@H](C)O/N=C/c1cc(-n2c(=O)n(C)c(=S)n(C)c2=O)c(F)cc1Cl", "note": "[20(R)]", "Weeding effect in post-emergence stage, Echinochloa crusgalli": "5 (Level 5: growth control rate is above 85%)"},
      {"smiles": "C[C@@H](O/N=C/c1cc(-n2c(=O)n(C)c(=S)n(C)c2=O)c(F)cc1Cl)C(=O)OCC1CCCO1", "note": "(stereo partly drawn) [24(R)]", "Weeding effect in post-emergence stage, Echinochloa crusgalli": "5 (Level 5: growth control rate is above 85%)"}
    ]}
  ]
}
